Common to all, as to assay: Growth inhibitory activity of compounds on BaF3 cell lines stably transfected with kinase (MTS, 48 h)
Common to all, as to assay type: cell-based

Assay [1] deals with T1, various mutants of kinase EGFR (BaF3 cell lines stably transfected with kinase) (Homo sapiens, UniProt P00533).
T1 construct: other: BaF3 cells stably transfected with EGFR Δ19Del; MTS, 48 h; other: BaF3 cell line stably transfected with EGFR Δ19Del
Particulars: BaF3 cells stably transfected with EGFR Δ19Del, read-out: IC50, growth inhibition, Δ19Del. The essentials: (§1)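 Cells in DMEM or RPMI 1640 with 10% FBS were exposed to compound at 8 concentrations (top 10 µM, 1/3 steps, 0.1% DMSO) for 48 h at 37 °C, 5% CO2. MTS/PES was then added for 1-4 h and OD490 read; IC50 was fitted from growth inhibition versus 0.1% DMSO control.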

The target in assay [2] is T2, various mutants of kinase EGFR (BaF3 cell lines stably transfected with kinase) (Homo sapiens, UniProt P00533, C797S/L858R/T790M).
T2 construct: expressed in transfected cells; host or cells: BaF3
Conditions: BaF3 cells stably transfected with EGFR L858R/T790M/C797S, read-out: IC50, growth inhibition, L858R/T790M/C797S. In short, it runs like this: as §1

The target in assay [3] is T3, various mutants of kinase EGFR (BaF3 cell lines stably transfected with kinase) (Homo sapiens, UniProt P00533, L858R).
T3 construct: expressed in transfected cells; host or cells: BaF3
Conditions: BaF3 cells stably transfected with EGFR L858R, read-out: IC50, growth inhibition, L858R. In short, it runs like this: as §1

In assay [4] the target is T4, various mutants of kinase EGFR (BaF3 cell lines stably transfected with kinase) (Homo sapiens, UniProt P00533, T790M/C797S, form not given).
T4 construct: other: BaF3 cells stably transfected with EGFR Δ19Del/T790M/C797S; MTS, 48; other: BaF3 cell line stably transfected with EGFR Δ19Del/T790M/C7
Conditions: BaF3 cells stably transfected with EGFR Δ19Del/T790M/C797S, read-out: IC50, growth inhibition, Δ19Del/T790M/C797S. The essentials:
as §1

Assay [5] concerns the target T5, various mutants of kinase EGFR (BaF3 cell lines stably transfected with kinase) (Homo sapiens, UniProt P00533, T790M, form not given).
T5 construct: other: BaF3 cells stably transfected with EGFR Δ19Del/T790M; MTS, 48 h; other: BaF3 cell line stably transfected with EGFR Δ19Del/T790M; MTS, 48
Conditions: BaF3 cells stably transfected with EGFR Δ19Del/T790M, read-out: IC50, growth inhibition, Δ19Del/T790M. The essentials: as §1

Assay [6] addresses T6, various mutants of kinase EGFR (BaF3 cell lines stably transfected with kinase) (Homo sapiens, UniProt P00533, L858R/T790M).
T6 construct: expressed in transfected cells; host or cells: BaF3
Conditions: BaF3 cells stably transfected with EGFR L858R/T790M, read-out: IC50, growth inhibition, L858R/T790M. The essentials: as §1

T1 sequence (P00533 with tags, fused parts or gaps DEL746-750): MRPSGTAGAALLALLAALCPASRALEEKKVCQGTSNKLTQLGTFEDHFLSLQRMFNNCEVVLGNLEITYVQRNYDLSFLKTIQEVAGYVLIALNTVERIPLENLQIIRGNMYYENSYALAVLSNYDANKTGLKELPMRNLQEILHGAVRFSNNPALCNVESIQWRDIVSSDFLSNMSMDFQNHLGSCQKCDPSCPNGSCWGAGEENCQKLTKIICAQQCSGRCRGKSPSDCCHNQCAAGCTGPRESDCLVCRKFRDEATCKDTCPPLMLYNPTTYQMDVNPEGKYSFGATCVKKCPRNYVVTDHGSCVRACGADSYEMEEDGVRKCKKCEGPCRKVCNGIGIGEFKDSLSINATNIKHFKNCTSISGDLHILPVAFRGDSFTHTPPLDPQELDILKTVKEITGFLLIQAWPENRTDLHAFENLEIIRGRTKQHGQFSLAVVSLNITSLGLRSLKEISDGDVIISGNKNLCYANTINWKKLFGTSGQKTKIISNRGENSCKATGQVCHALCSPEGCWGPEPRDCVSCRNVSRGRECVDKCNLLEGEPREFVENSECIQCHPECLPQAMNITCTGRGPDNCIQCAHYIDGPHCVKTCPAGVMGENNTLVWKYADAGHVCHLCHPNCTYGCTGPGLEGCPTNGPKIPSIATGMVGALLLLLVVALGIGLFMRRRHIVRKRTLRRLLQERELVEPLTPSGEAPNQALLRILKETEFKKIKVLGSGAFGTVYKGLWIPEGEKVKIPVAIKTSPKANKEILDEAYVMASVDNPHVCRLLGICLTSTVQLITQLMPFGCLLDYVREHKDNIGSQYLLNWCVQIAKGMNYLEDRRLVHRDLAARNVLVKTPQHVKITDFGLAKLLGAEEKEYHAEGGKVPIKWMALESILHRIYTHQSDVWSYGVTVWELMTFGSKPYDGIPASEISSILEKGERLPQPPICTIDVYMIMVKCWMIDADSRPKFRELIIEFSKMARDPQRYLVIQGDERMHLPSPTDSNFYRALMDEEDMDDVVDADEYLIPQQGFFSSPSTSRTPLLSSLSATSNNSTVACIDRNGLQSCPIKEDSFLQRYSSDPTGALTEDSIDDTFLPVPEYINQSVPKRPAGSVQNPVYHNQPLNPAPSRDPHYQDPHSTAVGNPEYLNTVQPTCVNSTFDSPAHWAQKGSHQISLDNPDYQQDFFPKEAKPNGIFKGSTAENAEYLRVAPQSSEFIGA
T6 sequence (P00533 25-1210 T790M/L858R): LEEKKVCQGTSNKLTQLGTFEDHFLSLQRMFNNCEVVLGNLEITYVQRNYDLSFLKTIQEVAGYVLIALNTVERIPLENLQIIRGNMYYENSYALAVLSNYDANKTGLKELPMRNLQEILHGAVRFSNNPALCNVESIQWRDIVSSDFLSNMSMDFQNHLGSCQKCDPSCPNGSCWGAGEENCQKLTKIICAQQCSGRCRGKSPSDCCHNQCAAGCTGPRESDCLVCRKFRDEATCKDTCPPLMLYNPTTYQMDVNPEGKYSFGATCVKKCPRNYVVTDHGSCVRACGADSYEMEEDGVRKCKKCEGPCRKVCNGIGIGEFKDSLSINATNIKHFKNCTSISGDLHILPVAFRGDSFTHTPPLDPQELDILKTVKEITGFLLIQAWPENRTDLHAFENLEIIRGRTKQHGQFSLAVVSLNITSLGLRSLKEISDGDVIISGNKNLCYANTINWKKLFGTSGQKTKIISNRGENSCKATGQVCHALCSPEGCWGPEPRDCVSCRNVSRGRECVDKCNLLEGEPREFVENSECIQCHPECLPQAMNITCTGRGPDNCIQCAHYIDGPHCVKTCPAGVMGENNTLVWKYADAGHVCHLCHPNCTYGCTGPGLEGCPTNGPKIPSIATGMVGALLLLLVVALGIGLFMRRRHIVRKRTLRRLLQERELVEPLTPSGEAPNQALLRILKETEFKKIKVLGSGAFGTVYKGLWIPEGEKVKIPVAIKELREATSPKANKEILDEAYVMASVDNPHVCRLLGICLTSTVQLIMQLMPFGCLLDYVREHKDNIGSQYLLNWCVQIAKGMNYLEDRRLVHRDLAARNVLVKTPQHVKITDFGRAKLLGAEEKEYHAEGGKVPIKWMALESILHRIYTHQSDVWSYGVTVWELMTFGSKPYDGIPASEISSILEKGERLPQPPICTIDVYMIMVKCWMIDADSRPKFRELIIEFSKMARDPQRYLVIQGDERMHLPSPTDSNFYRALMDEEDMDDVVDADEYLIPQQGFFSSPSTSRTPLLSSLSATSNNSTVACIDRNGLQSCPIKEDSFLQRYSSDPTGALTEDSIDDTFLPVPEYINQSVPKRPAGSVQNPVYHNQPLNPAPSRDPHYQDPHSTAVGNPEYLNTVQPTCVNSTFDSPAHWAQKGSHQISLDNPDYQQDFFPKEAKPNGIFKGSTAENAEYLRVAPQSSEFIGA
T2 sequence (P00533 25-1210 T790M/C797S/L858R): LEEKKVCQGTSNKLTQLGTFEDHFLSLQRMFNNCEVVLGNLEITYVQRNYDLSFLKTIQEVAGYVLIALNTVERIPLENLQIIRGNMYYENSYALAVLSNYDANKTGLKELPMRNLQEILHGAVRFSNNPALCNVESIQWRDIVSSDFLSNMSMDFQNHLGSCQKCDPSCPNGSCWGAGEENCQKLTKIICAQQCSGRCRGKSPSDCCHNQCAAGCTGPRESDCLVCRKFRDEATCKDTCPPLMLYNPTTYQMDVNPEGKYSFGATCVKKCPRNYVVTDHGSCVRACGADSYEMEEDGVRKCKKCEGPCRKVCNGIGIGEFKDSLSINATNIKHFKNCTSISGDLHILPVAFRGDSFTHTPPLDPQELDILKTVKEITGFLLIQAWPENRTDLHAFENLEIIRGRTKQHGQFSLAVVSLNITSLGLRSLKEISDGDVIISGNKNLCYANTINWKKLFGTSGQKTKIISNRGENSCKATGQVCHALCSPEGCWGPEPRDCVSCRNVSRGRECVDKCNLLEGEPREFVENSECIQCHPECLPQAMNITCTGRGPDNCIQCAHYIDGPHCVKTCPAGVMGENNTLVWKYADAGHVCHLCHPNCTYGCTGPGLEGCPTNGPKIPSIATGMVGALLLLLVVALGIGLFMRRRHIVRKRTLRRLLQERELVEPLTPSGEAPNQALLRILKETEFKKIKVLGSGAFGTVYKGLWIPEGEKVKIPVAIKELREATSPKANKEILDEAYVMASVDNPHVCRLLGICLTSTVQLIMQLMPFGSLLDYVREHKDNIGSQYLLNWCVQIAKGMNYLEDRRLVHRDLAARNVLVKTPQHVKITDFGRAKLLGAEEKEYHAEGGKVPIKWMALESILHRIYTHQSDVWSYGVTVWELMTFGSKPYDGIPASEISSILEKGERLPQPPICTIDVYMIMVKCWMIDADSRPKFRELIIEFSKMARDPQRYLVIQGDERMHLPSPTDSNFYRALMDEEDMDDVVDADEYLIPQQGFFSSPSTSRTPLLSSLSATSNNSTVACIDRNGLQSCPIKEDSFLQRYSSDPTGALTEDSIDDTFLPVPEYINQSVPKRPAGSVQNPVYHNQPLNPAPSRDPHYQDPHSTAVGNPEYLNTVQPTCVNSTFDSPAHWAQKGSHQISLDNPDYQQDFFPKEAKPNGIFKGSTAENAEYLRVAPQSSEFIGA
T4 sequence (P00533 with tags, fused parts or gaps DEL746-750/T790M/C797S, form open): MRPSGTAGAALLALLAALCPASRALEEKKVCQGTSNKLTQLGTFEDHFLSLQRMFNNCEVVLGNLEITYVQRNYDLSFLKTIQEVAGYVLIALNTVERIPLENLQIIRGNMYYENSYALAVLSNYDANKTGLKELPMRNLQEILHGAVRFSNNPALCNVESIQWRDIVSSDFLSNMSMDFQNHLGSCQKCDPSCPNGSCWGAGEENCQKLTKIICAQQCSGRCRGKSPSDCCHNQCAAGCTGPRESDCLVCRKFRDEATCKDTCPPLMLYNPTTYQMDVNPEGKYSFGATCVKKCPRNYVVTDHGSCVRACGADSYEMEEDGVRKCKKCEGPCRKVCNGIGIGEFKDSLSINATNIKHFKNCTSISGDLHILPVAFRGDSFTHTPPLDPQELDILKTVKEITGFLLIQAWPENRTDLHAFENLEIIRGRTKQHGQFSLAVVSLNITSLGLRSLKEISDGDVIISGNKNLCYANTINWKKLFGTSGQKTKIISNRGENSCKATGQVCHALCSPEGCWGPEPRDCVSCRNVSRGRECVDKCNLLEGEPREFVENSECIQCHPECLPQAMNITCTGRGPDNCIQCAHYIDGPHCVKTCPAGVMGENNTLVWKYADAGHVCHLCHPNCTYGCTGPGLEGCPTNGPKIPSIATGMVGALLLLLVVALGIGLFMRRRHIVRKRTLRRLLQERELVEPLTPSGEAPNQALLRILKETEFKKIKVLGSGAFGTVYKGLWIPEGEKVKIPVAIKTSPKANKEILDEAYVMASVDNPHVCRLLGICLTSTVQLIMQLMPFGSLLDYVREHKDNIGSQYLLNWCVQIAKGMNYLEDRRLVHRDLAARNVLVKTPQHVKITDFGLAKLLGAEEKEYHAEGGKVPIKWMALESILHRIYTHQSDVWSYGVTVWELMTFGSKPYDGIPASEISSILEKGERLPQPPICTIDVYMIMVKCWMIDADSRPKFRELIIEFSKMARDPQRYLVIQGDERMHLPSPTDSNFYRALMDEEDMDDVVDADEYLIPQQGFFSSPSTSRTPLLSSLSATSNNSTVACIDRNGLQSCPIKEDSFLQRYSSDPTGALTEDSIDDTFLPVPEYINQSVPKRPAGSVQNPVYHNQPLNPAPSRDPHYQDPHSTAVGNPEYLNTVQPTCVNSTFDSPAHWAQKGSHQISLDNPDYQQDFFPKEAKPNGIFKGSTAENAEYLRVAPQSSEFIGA

Take `COc1cc(N2CCC(N3CCN(C)CC3)CC2)c(C)cc1Nc1ncc(Br)c(Nc2ccc3nccnc3c2N(C)S(=O)(=O)C(C)C)n1` [Compound I-134]: the IC50 was 0.05 to 0.5 µM in assay [1]; at most 0.05 µM in assay [2]; 0.05 to 0.5 µM in assay [3]; at most 0.05 µM in assay [4]; at most 0.05 µM in assay [5]; at most 0.05 µM in assay [6].

For the compound `CCc1cc(Nc2ncc(Br)c(Nc3ccc4nccnc4c3N(C)S(=O)(=O)C(C)C)n2)c(OC)cc1N1CCC(N2CCN(C)CC2)CC1` [Compound I-135], the IC50 in assay [1] was 0.05 to 0.5 µM; in assay [2], at most 0.05 µM; in assay [3], 0.05 to 0.5 µM; in assay [4], at most 0.05 µM; in assay [5], at most 0.05 µM; in assay [6], at most 0.05 µM.

For `CCc1cc(Nc2ncc(Br)c(Nc3ccc4nccnc4c3N(C)S(=O)(=O)C(C)C)n2)c(OC)cc1N1CCC(N(C)C)CC1` [Compound I-137], the IC50 in assay [1] was 0.05 to 0.5 µM; in assay [2], at most 0.05 µM; in assay [3], at most 0.05 µM; in assay [4], at most 0.05 µM; in assay [5] it was at most 0.05 µM; in assay [6], at most 0.05 µM.

As to `CCc1cc(Nc2ncc(Br)c(Nc3ccc4nccnc4c3N(C)S(=O)(=O)C(C)C)n2)c(OC)cc1N1CCC(N(C)C)C1` (stereo not drawn) [Compound I-138], the IC50 in assay [1] is 0.05 to 0.5 µM; in assay [2], 0.05 to 0.5 µM; in assay [3], 0.05 to 0.5 µM; in assay [4] it was at most 0.05 µM; in assay [5] it was 0.05 to 0.5 µM; in assay [6], at most 0.05 µM.

As for `CCc1cc(Nc2ncc(Cl)c(Nc3ccc4nccnc4c3N(C)S(=O)(=O)C(C)C)n2)c(OC)cc1N1CCC(N(C)C)CC1` [Compound I-142], the IC50 in assay [1], in assay [2], in assay [3], in assay [4], in assay [5] and in assay [6] was at most 0.05 µM throughout.

As for `CCc1cc(Nc2ncc(Cl)c(Nc3ccc4nccnc4c3N(C)S(=O)(=O)C(C)C)n2)c(OC)cc1N1CCC(N(C)C)C1` (stereo not drawn) [Compound I-143], the IC50 was 0.05 to 0.5 µM in assay [1]; 0.05 to 0.5 µM in assay [2]; 0.05 to 0.5 µM in assay [3]; at most 0.05 µM in assay [4]; at most 0.05 µM in assay [5]; 0.05 to 0.5 µM in assay [6].

With `COc1cc(N2CCC(N3CCN(C)CC3)CC2)c(C)cc1Nc1ncc(Br)c(Nc2ccc3nccnc3c2N(C2CC2)S(C)(=O)=O)n1` [Compound I-154], the IC50 in assay [1], in assay [2], in assay [3], in assay [4], in assay [5] and in assay [6] was at most 0.05 µM in each case.

Take `CCc1cc(Nc2ncc(Br)c(Nc3ccc4nccnc4c3N(C3CC3)S(C)(=O)=O)n2)c(OC)cc1N1CCC(N2CCN(C)CC2)CC1` [Compound I-155]: the IC50 is 0.05 to 0.5 µM in assay [1]; at most 0.05 µM in assay [2]; at most 0.05 µM in assay [3]; at most 0.05 µM in assay [4]; at most 0.05 µM in assay [5]; at most 0.05 µM in assay [6].

Consider `CCc1cc(Nc2ncc(Br)c(Nc3ccc4nccnc4c3N(C3CC3)S(C)(=O)=O)n2)c(OC(F)(F)F)cc1N1CCC(N2CCN(C)CC2)CC1` [Compound I-156], for which the IC50 in assay [1] is 0.05 to 0.5 µM; in assay [2], 0.05 to 0.5 µM; in assay [3], 0.05 to 0.5 µM; in assay [4] it was at most 0.05 µM; in assay [5] it was at most 0.05 µM; in assay [6], 0.05 to 0.5 µM.

For `CCc1cc(Nc2ncc(Br)c(Nc3ccc4nccnc4c3N(C3CC3)S(C)(=O)=O)n2)c(OC)cc1N1CCC(N(C)C)CC1` [Compound I-157], the IC50 in assay [1], in assay [2], in assay [3], in assay [4], in assay [5] and in assay [6] was at most 0.05 µM each time.

Source of the values: US20230310428A1, “EGFR INHIBITOR AND PREPARATION METHOD AND USE THEREOF” (HONGYUN BIOTECH CO., LTD., priority 2020, published 2023).
